Reference: publication PMC11414412, “Design and synthesis new indole-based aromatase/iNOS inhibitors with apoptotic antiproliferative activity” (Frontiers in Chemistry, 2024)
Read-outs that look alike come from different tables or passages of the source.

Assays:
Bax = Bax activation assay; type: cell-based, human; settings: lung (A-549) cancer cells, compound at IC50
Description: Cells were obtained from American Type Culture Collection, cells were grown in RPMI 1640 containing 10% fetal bovine serum at 37°C, stimulated with the compounds to be tested for caspase8, and lysed with Cell Extraction Buffer. This lysate was diluted in Standard Diluent Buffer over the range of the assay and measured for human active caspase-8 content. […]
4.2.7. Bax activation assay
Bring all reagents, except the human Bax-α Standard, to room temperature for at least 30 minutes prior to opening. The human Bax-α Standard solution should not be left at room temperature for more than 10 minutes. All standards, controls and samples should be run in duplicate. Refer to the Assay Layout Sheet to determine the number of wells to be used and put any remaining wells with the desiccant back into the pouch and seal the ziploc. Store unused wells at 4 °C. Pipet 100 μL of Assay Buffer into the S0 (0 pg/mL standard) wells. Pipet 100 μL of Standards #1 through #6 into the appropriate wells. Pipet 100 μL of the Samples into the appropriate wells. Tap the plate gently to mix the contents. Seal the plate and incubate at room temperature on a plate shaker for 1 hour at ~500 rpm. Empty the contents of the wells and wash by adding 400 μL of wash solution to every well. Repeat the wash 4 more times for a total of 5 washes. After the final wash, empty or aspirate the wells and firmly tap the plate on a lint free paper towel to remove any remaining wash buffer.
Pipet 100 μL of yellow Antibody into each well, except the Blank. Seal the plate and incubate at room temperature on a plate shaker for 1 hour at ~500 rpm. Empty the contents of the wells and wash by adding 400 μL of wash solution to every well. Repeat the wash 4 more times for a total of 5 washes. After the final wash, empty or aspirate the wells and firmly tap the plate on a lint free paper towel to remove any remaining wash buffer. Add 100 μL of blue Conjugate to each well, except the Blank. Seal the plate and incubate at room temperature on a plate shaker for 30 minutes […]
Pipet 100 μL of Substrate Solution into each well. Incubate for 30 minutes at room temperature on a plate shaker at ~500 rpm. Pipet 100 μL Stop Solution to each well. Blank the plate reader against the Blank wells, read the optical density at 450 nm. Calculate the average net Optical Density (OD) bound for each standard and sample by subtracting the average Blank OD from the average OD for each standard and sample. Using linear graph paper, plot the Average Net OD for each standard versus Bax concentration in each standard. Approximate a straight line through the points.
The concentration of Bax in the unknowns can be determined by interpolation. […]

Bcl-2 = Bcl-2 inhibition assay; type: cell-based, human; settings: lung (A-549) cancer cells, compound at IC50
Description: 4.2.8. Bcl-2 inhibition assay
Mix all reagents thoroughly without foaming before use. Wash the microwells twice with approximately 300 μL Wash Buffer per well with thorough aspiration of microwell contents between washes. Take caution not to scratch the surface of the microwells. After the last wash, empty the wells and tap microwell strips on absorbent pad or paper towel to remove excess Wash Buffer. Use the microwell strips immediately after washing or place upside down on a wet absorbent paper for not longer than 15 minutes. […] Add 100 μL of Sample […]
Diluent in duplicate to all standard wells and to the blank wells. Prepare standard (1:2 dilution) in duplicate ranging from 32 ng/mL to 0.5 ng/mL. Add 100 μL of Sample Diluent, in duplicate, to the blank wells. Add 80 μL of Sample Diluent, in duplicate, to the sample wells. Add 20 μL of each Sample, in duplicate, to the designated wells. Add 50 μL of diluted biotin-conjugate to all wells, including the blank wells. Cover with a plate cover and incubate at room temperature, on a microplate shaker at 100 rpm if available, for 2 hours. Remove plate cover and empty the wells.
Wash microwell strips 3 times as described in step 2. Add 100 μL of diluted Streptavidin-HRP to all wells, including the blank wells. Cover with a plate cover and incubate at room temperature, on a microplate shaker at 100 rpm if available, for 1 hour. Remove plate cover and empty the wells.
Wash microwell strips 3 times as described in step 2. Proceed to the next step. Pipette 100 μl of mixed TMB Substrate Solution to all wells, including the blanks. Incubate the microwell strips at room temperature (18° to 25°C) for about 15 minutes, if available on a rotator set at 100 rpm.
Avoid direct exposure to intense light. The point, at which the substrate reaction is stopped, is often determined by the ELISA reader. Many ELISA readers record absorbance only up to 2.0
O.D. Therefore, the color development within individual microwells must be watched by the person running the assay and the substrate reaction stopped before positive wells are no longer properly detectable. Stop the enzyme reaction by quickly pipetting 100 μL of Stop Solution into each well, including the blank wells. It is important that the Stop Solution is spread quickly and uniformly throughout the microwells to completely inactivate the enzyme. Results must be read immediately after the Stop Solution is added or within one hour i f the microwell strips are stored at 2 - 8°C in the dark. Read absorbance of each microwell on a spectrophotometer using 450 nm as the primary wavelength.

aromatase = settings: read-out: Aromatase inhibition IC50, cited from earlier work

## CN[C@@H]1C[C@H]2O[C@@](C)([C@@H]1OC)n1c3ccccc3c3c4c(c5c6ccccc6n2c5c31)C(=O)NC4 [Staurosporine, reference compound]
Bax
  Bax Conc: 288 ± 2 pg/mL
Bcl-2
  Bcl-2 Conc: 1.00 ng/mL

## COc1ccc(S(=O)(=O)NCCc2c(C(c3ccc(O)cc3)c3[nH]c4ccccc4c3CCNS(=O)(=O)c3ccc(OC)cc3)[nH]c3ccccc23)cc1 [compound VIII]
aromatase; bis-/tris-indole sulfonamide series, ref Pingaew et al., 2018
  IC50: 700 nM

## O=S(=O)(Cc1ccccc1)Nc1ccc2[nH]ccc2c1 [derivative IX]
aromatase; indole aryl sulfonamide series, ref Fantacuzzi et al., 2020
  IC50: 160 nM

## N#Cc1c(-c2ccccc2)[nH]c2ccccc12 [compound VII]
aromatase; 2-aryl indole series, ref Prior et al., 2017
  IC50: 1610 nM
